The values that follow come from patent US10519193B2, “Steroidal compound, composition containing the same and use thereof” (Shenzhen TargetRx, Inc., priority 2016, dated 2019).

Data set [1] can be described thus: Metabolic stability evaluation in human liver microsomes. The format is in vitro ADME. To be noted: for half-life of the deuterated prodrug: metabolized abiraterone of the prodrug, liver microsomes, versus abiraterone acetate; for half-life of the deuterated prodrug / clearance compared to the non-deuterated compound / half-life compared to the non-deuterated compound: in words; for clearance compared to the non-deuterated compound / half-life compared to the non-deuterated compound / half-life at 1 μM / microsomal CLint at 1 μM: human liver microsome; for half-life at 1 μM / microsomal CLint at 1 μM: human liver microsomes, pH 7.4, 1 μM compound, 0.5 mg/mL protein. As to the method: Experiments in microsomes: Human liver microsomes: 0.5 mg/mL, Xenotech; Coenzyme (NADPH/NADH): 1 mM, Sigma Life Science; Magnesium chloride: 5 mM, 100 mM phosphate buffer (pH 7.4).
Preparation of stock solution: Powder of the example compound was accurately weighed and dissolved in DMSO to 5 mM.
Preparation of phosphate buffer (100 mM, pH7.4): A pre-formulated 0.5M potassium dihydrogen phosphate (150 mL) was mixed with 0.5M dibasic potassium phosphate (700 mL). The pH of the mixture was adjusted to 7.4 with 0.5M dibasic potassium phosphate solution. The mixture was diluted 5-fold with ultrapure water before use, and magnesium chloride was added to obtain a phosphate buffer (100 mM) containing 100 mM potassium phosphate, 3.3 mM magnesium chloride, pH 7.4.
A NADPH regeneration system solution (containing 6.5 mM NADP, 16.5 mM G-6-P, 3 U/mL G-6-P D, 3.3 mM magnesium chloride) was prepared and placed on wet ice prior to use.
Preparation of stop solution: acetonitrile solution containing 50 ng/mL propranolol hydrochloride and 200 ng/mL tolbutamide (internal standard). 25057.5 μL of phosphate buffer (pH 7.4) was taken into a 50 mL centrifuge tube, to which 812.5 μL human liver microsomes were added, and mixed to obtain a liver microsome dilution solution with a protein concentration of 0.625 mg/mL. 25057.5 μL of phosphate buffer (pH 7.4) was taken into a 50 mL centrifuge tube, to which 812.5 μL SD rat liver microsomes were added, and mixed to obtain a liver microsome dilution solution with a protein concentration of 0.625 mg/mL.
Incubation of the samples: The stock solution of the respective compound was respectively diluted to 0.25 mM with an aqueous solution containing 70% acetonitrile, and used as a working solution, ready for use. 398 μL of the dilution solution of human liver microsomes or rat liver microsome were added to a 96-well incubation plate (N=2), respectively, and 2 μL of 0.25 mM working solution was added and mixed.
Metabolic stability assay: 300 μL of pre-chilled stop solution was added to each well of a 96-well deep well plate and placed on ice as a stop plate. The 96 well incubation plate and NADPH regeneration system were placed in a 37° C. water bath box, shaken at 100 rpm and pre-incubated for 5 min. 80 μL of incubation solution was taken out from each well of the incubation plate and added to the stop plate, mixed, and replenished with 20 μL of NADPH regeneration system solution as a 0-min sample. 80 μL of NADPH regeneration system solution was added to each well of the incubation plate to start the reaction and start counting. […] Separately, 100 μL of the reaction solution was taken at 10, 30, and 90 min reaction, respectively, added to a stop plate, and vortexed for 3 minutes to terminate the reaction. The stop plate was centrifuged at 5000×g at 4° C. for 4 min. 100 μL of the supernatant was added to a 96-well plate to which 100 μL of distilled water was previously added, mixed, and analyzed by LC-MS/MS.
Data analysis: The peak areas of the corresponding compound and internal standard were detected by LC-MS/MS system, and the ratio of the peak area of the compound to the internal standard was calculated.

The target of data set [2] is T1, Human CYP17 (Homo sapiens, UniProt P05093).
T1 sequence (P05093 1-508): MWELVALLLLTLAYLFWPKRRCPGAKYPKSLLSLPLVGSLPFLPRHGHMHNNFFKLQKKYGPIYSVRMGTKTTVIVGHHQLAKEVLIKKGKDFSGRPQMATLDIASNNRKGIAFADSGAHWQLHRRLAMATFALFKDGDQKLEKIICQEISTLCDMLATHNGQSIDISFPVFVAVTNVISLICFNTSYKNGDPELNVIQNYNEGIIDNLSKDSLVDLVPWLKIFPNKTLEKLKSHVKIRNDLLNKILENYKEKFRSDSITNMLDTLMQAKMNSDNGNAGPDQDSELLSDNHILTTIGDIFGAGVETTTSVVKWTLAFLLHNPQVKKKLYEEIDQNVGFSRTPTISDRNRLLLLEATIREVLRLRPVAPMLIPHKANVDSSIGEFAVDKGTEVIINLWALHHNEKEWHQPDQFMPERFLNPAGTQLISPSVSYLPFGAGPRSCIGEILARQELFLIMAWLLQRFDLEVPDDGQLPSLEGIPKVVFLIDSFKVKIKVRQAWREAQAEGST
Kind of data set: CYP17 hydroxylase assay. Type of data set: biochemical. Further details: made in house; host or cells: E. coli (membrane preparation). As for the experimental part:
E. coli was transformed to express active human CYP17, and a membrane prepared from the transformed E. coli was used as a source of the enzyme. […] The reaction mixture was incubated at 37° C. for 120 minutes and 200 μL of 0.02 N HCl in acetonitrile was added to stop the reaction. The sample was then spun at […] and 200 μL of the supernatant was transferred to a clean tube for determination. The reaction product 17-alpha pregnenolone was measured by LC/MS.

The target of data set [3] is T1, Human CYP17. The data set can be described thus: CYP17 lyase assay. The format is biochemical. Set-up: made in house; host or cells: HEK293 cells (microsomes). As to the method:
Human CYP17 was expressed in HEK293 cells and microsome were prepared, which was subsequently used as a source of enzyme for lyase assays. The reaction includes 200 nM [3H]-hydroxy pregnenolone (ARC), 200 nM 17-hydroxy pregnenolone (Sigma), 2 mM NADPH (Calbiochem), and CYP 17-HEK293 microsomes, which were incubated for 20 minutes at room temperature in the presence of DMSO or a test compound. Compounds were dissolved in DMSO and serially diluted. The reaction was stopped by the addition of 0.2N HCl and the product was captured using an anti-mouse YSi SPA Bead (GE) conjugated anti-DHEA monoclonal antibody (Abcam). The signal intensity determined by Packard Top Count was used to calculate the percent inhibition and IC50 values.

Data set [4] is described as follows: Pharmacokinetic evaluation in rats. Type of data set: in vivo. The note with it: male, Sprague-Dawley, plasma, 5 mg/kg; rat, PO. As for the experimental part: 8 male Sprague-Dawley rats (7-8 weeks old, and weighing approximately 210 g) were divided into two groups with 4 rats in each group, a single oral dose of 5 mg/kg given to the two groups were (a) control group: (3β)-17-(3)-pyridyl)androst-5,16-dienol and (b) test group: Examples 1-13, and pharmacokinetic differences between the two groups were compared.
The rats were raised on standard food and water. Fasting was started 16 hours before the test. The drug was dissolved with PEG400 and dimethyl sulfoxide. The blood samples were collected from eyelids at the time points of 0.083 hours, 0.25 hours, 0.5 hours, […], 2 hours, 4 hours, 6 hours, 8 hours, 12 hours, and 24 hours after administration.
Rats were briefly anesthetized after inhalation of diethyl ether and 300 μL of blood sample was collected from the eyelids into test tubes. There was 30 μL of 1% heparin salt solution in the test tube. Tubes were dried at 60° C. overnight before use. After the blood sample was collected at a later time point, the rats were sacrificed after ether anesthesia.
Immediately after the collection of the blood sample, the test tube was gently inverted at least 5 times to ensure sufficient mixing and then placed on ice. The blood sample was centrifuged at 5000 rpm at 4° C. for 5 minutes to separate the plasma from the red blood cells. 100 μL of plasma was aspirated into a clean plastic centrifuge tube with a pipette, marking with the name of the compound and time point. Plasma was stored at −80° C. prior to analysis. The concentration of the compound of the present disclosure in plasma was determined by LC-MS/MS. The pharmacokinetic parameters were calculated based on the blood concentration of each animal at different time points.

In data set [5] the test system is castration-resistant prostate cancer. The note with it: patients, cited from earlier work.
A short description of data set [6]: Pharmacokinetic evaluation in rats. The format is in vivo. The note with it: male, Sprague-Dawley, plasma; rat, IV.
The mark [7] stands for this setting: abiraterone acetate plus prednisone.
Setting [8] is: CYP17-HEK293 microsomes, 20 minutes at room temperature, read-out: CYP17 lyase IC50.
Setting [9] is: hCYP17 E. coli membrane, 25 μM pregnenolone, 37° C. 120 minutes, read-out: CYP17 hydroxylase IC50.

pIC50: −log10 of the molar value.

Turning to `[2H]c1cncc(C2=CCC3C4CC=C5C[C@@H](OC(=O)C([2H])([2H])[2H])CC[C@]5(C)C4CC[C@]23C)c1` (stereo partly drawn) [Example 7, (3β)-17-(3-pyridyl-5-d)androst-5,16-dienyl d3-acetate], the “half-life of the deuterated prodrug” value in data set [1] is recorded as “significantly prolonged”.
On to `[2H]C1=C(c2cccnc2)[C@@]2(C)CCC3C(CC=C4C[C@@H](O)CC[C@@]43C)C2C1` (stereo partly drawn) [Example 8, (3β)-17-(3-pyridyl)androst-5,16-dienol-16-d], for which the pIC50 in data set [2] was greater than 7.70. Besides, in data set [1], the “clearance compared to the non-deuterated compound” value was “reduced”, the “half-life compared to the non-deuterated compound” value is “prolonged”, the half-life at 1 μM stood at 0.855 h and the microsomal CLint at 1 μM was 24.3 µL/min/mg. In addition, the pIC50 in data set [3] is greater than 8.00.
As to `CC(=O)O[C@H]1CC[C@@]2(C)C(=CC[C@@H]3[C@@H]2CC[C@]2(C)C(c4cccnc4)=CC[C@@H]32)C1` [Abiraterone acetate, reference compound], in data set [4], the AUC(0-inf) was found to be 1320 ng·h/mL, the AUC(0-t) is 1290 ng·h/mL, the Cmax is 506 ng/mL and the Tmax was found to be 1.33 h. The “risk of death reduced” value in data set [5] (abiraterone acetate plus prednisone vs placebo plus prednisone) is on record as 35%. For the same compound, in data set [5] (setting [7]), the Median survival is on record as 14.8 months and the “Median survival longer than placebo plus prednisone” value was 3.9 months. In data set [6], the AUC(0-inf) was 192 ng·h/mL, the AUC(0-t) is 110 ng·h/mL, the Cmax amounted to 10.6 ng/mL and the Tmax amounted to 2 h.
Consider `C[C@]12CC[C@H](O)CC1=CC[C@@H]1[C@@H]2CC[C@]2(C)C(c3cccnc3)=CC[C@@H]12` [Abiraterone, (3β)-17-(3-pyridinyl)androst-5,16-dienol, reference compound], for which, in data set [1], the half-life at 1 μM was determined as 0.667 h and the microsomal CLint at 1 μM was determined as 34.7 µL/min/mg. Also, the pIC50 in data set [3] (setting [8]) is greater than 8.00.
On to `[2H]c1ccc(C2=CCC3C4CC=C5C[C@@H](OC(C)=O)CC[C@]5(C)C4CC[C@]23C)cn1` (stereo partly drawn) [Example 5, (3β)-17-(3-pyridyl-6-d)androst-5,16-dienyl Acetate], for which, in data set [4], the AUC(0-inf) came to 2440 ng·h/mL, the AUC(0-t) was determined as 2420 ng·h/mL, the concentration peaked (Cmax) at 813 ng/mL and the Tmax amounted to 1.67 h. For the same compound, in data set [6], the AUC(0-inf) came to 274 ng·h/mL, the AUC(0-t) is 224 ng·h/mL, the peak level (Cmax) was 24.1 ng/mL and the Tmax worked out at 3 h.
For the compound `[2H]c1cncc(C2=CCC3C4CC=C5C[C@@H](O)CC[C@]5(C)C4CC[C@]23C)c1` (stereo partly drawn) [Example 2, (3β)-17-(3-pyridyl-5-d)androst-5,16-dienol], the pIC50 in data set [2] (setting [9]) was greater than 7.70. Also, in data set [1], the “clearance compared to the non-deuterated compound” value is “reduced”, the “half-life compared to the non-deuterated compound” value is “prolonged”, the half-life at 1 μM was found to be 1.19 h and the microsomal CLint at 1 μM was determined as 19.5 µL/min/mg. The pIC50 in data set [3] (setting [8]) is greater than 8.00.
With `[2H]c1cncc(C2=CCC3C4CC=C5C[C@@H](OC(C)=O)CC[C@]5(C)C4CC[C@]23C)c1` (stereo partly drawn) [Example 3, (3β)-17-(3-pyridyl-5-d)androst-5,16-dienyl Acetate], in data set [1], the “half-life of the deuterated prodrug” value is recorded as “significantly prolonged”.
As to `[2H]C1=C(c2cccnc2)[C@@]2(C)CCC3C(CC=C4C[C@@H](OC(=O)C([2H])([2H])[2H])CC[C@@]43C)C2C1` (stereo partly drawn) [Example 9, (3β)-17-(3-pyridyl)androst-5,16-dienyl-16-d d3-acetate], in data set [4], the AUC(0-inf) was 2550 ng·h/mL, the AUC(0-t) worked out at 2480 ng·h/mL, the Cmax is 549 ng/mL and the Tmax was 1.67 h. In data set [6], the Cmax was found to be 43.6 ng/mL and the Tmax came to 17.3 h. Besides, the “half-life of the deuterated prodrug” value in data set [1] is “significantly prolonged”.
As for `[2H]C([2H])([2H])C(=O)O[C@H]1CC[C@@]2(C)C(=CCC3C2CC[C@]2(C)C(c4cccnc4)=CCC32)C1` (stereo partly drawn) [Example 4, (3β)-17-(3-pyridyl)androst-5,16-dienyl d3-acetate], in data set [1], the “half-life of the deuterated prodrug” value is recorded as “significantly prolonged”.
`[2H]c1ccc(C2=CCC3C4CC=C5C[C@@H](O)CC[C@]5(C)C4CC[C@]23C)cn1` (stereo partly drawn) [Example 1, (3β)-17-(3-pyridyl-6-d)androst-5,16-dienol]: the pIC50 in data set [2] (setting [9]) was greater than 7.70. Further, in data set [1], the “clearance compared to the non-deuterated compound” value is recorded as “reduced”, the “half-life compared to the non-deuterated compound” value is “prolonged”, the half-life at 1 μM is greater than 2.42 h and the microsomal CLint at 1 μM was less than 9.6 µL/min/mg. Besides, the pIC50 in data set [3] (setting [8]) was greater than 8.00.
